Key:
[1] = system: B16F10-Cas9 cells co-cultured with Pmel-1 T cells; test: Genome-scale CRISPR-Cas9 screen, selection with Pmel-1 T cells; assay type: cell-based, mouse; conditions: Table 3; B16F10-Cas9 cells pre-treated with IFNγ, co-cultured with Pmel-1 T cells 1:1 for three days; negative = depleted, positive = enriched
[2] = system: B16F10-Cas9 cells pulsed with SIINFEKL peptide, co-cultured with OT-I T cells; test: Genome-scale CRISPR-Cas9 screen, selection with OT-I T cells; assay type: cell-based, mouse; conditions: Table 3; B16F10-Cas9 cells pulsed with SIINFEKL, co-cultured with OT-I T cells 1:1 for one day; negative = depleted, positive = enriched

Q: For “ATCACCTGGAGCATGCAGGA (chemistry not fully specified)”, which “Pmel+ (sgRNA Log(2) fold change, Pmel-1 selection versus control T cells)” value [1] is on record?
A: 2.72

Q: And the “OT1 (sgRNA Log(2) fold change, OT-I selection versus control T cells)” value [2]?
A: -0.29

Q: For “TGATAATAGATAAACGACCA (chemistry not fully specified)”, which “Pmel+ (sgRNA Log(2) fold change, Pmel-1 selection versus control T cells)” value [1] is on record?
A: 0.05

Q: What about the “OT1 (sgRNA Log(2) fold change, OT-I selection versus control T cells)” value [2] of the same sequence?
A: -3.36

Q: For “GGATAGACGCCCAGCCACTG (chemistry not fully specified)”, which “Pmel+ (sgRNA Log(2) fold change, Pmel-1 selection versus control T cells)” value [1] is on record?
A: 9.31

Q: And the “OT1 (sgRNA Log(2) fold change, OT-I selection versus control T cells)” value [2]?
A: 3.32

Q: For “CTGTTACCTTCATAGATAAG (chemistry not fully specified)”, which “Pmel+ (sgRNA Log(2) fold change, Pmel-1 selection versus control T cells)” value [1] is on record?
A: 0.00

Q: And the “OT1 (sgRNA Log(2) fold change, OT-I selection versus control T cells)” value [2]?
A: -2.50

Q: How did the “Pmel+ (sgRNA Log(2) fold change, Pmel-1 selection versus control T cells)” value [1] turn out when “ATTTCAAGAGATTCTATGCT (chemistry not fully specified)” was run?
A: 1.73

Q: What about the “OT1 (sgRNA Log(2) fold change, OT-I selection versus control T cells)” value [2] of the same sequence?
A: -2.59

Q: Which results are given for “TTCGGACAAATACGACGACG (chemistry not fully specified)”?
A: Pmel+ (sgRNA Log(2) fold change, Pmel-1 selection versus control T cells) [1]: 0.00; OT1 (sgRNA Log(2) fold change, OT-I selection versus control T cells) [2]: -2.32

Q: With “GCTGCAGAGGCAGTTTGATG (chemistry not fully specified)” as the sequence, how does the “Pmel+ (sgRNA Log(2) fold change, Pmel-1 selection versus control T cells)” value [1] read?
A: -0.70

Q: What about the “OT1 (sgRNA Log(2) fold change, OT-I selection versus control T cells)” value [2] of the same sequence?
A: -3.06

Q: “GTAGACAACAACATTCGCAG (chemistry not fully specified)” was tested. Which “Pmel+ (sgRNA Log(2) fold change, Pmel-1 selection versus control T cells)” value [1] did it give?
A: 2.97

Q: And the “OT1 (sgRNA Log(2) fold change, OT-I selection versus control T cells)” value [2]?
A: 0.33

Q: For “GAGATCTGCACATTCCGCAC (chemistry not fully specified)”, which “Pmel+ (sgRNA Log(2) fold change, Pmel-1 selection versus control T cells)” value [1] is on record?
A: -0.78

Q: What about the “OT1 (sgRNA Log(2) fold change, OT-I selection versus control T cells)” value [2] of the same sequence?
A: -2.69

Q: Which results are given for “TTAGTTCTGGCAAAGCGCCG (chemistry not fully specified)”?
A: Pmel+ (sgRNA Log(2) fold change, Pmel-1 selection versus control T cells) [1]: -2.54; OT1 (sgRNA Log(2) fold change, OT-I selection versus control T cells) [2]: -2.23

Q: Which “Pmel+ (sgRNA Log(2) fold change, Pmel-1 selection versus control T cells)” value [1] does the source give for “TTATTGAGTCAAGAAAAGGT (chemistry not fully specified)” here?
A: -1.87

Q: And the “OT1 (sgRNA Log(2) fold change, OT-I selection versus control T cells)” value [2]?
A: -3.67

Q: How did the “Pmel+ (sgRNA Log(2) fold change, Pmel-1 selection versus control T cells)” value [1] turn out when “CAATAATGCTGGTCTACGTG (chemistry not fully specified)” was run?
A: 2.58

Q: What about the “OT1 (sgRNA Log(2) fold change, OT-I selection versus control T cells)” value [2] of the same sequence?
A: 0.89

Q: What does the source list for “TCTTGAAAACTATAGTACTC (chemistry not fully specified)”?
A: Pmel+ (sgRNA Log(2) fold change, Pmel-1 selection versus control T cells) [1]: -2.12; OT1 (sgRNA Log(2) fold change, OT-I selection versus control T cells) [2]: -2.40

Q: “CCATATCCAAATAGCCACAG (chemistry not fully specified)” was tested. Which “Pmel+ (sgRNA Log(2) fold change, Pmel-1 selection versus control T cells)” value [1] did it give?
A: -2.19

Q: And the “OT1 (sgRNA Log(2) fold change, OT-I selection versus control T cells)” value [2]?
A: -3.59

Q: For “ACAGGGAAAGCATGGGACAC (chemistry not fully specified)”, which “Pmel+ (sgRNA Log(2) fold change, Pmel-1 selection versus control T cells)” value [1] is on record?
A: 0.76

Q: What about the “OT1 (sgRNA Log(2) fold change, OT-I selection versus control T cells)” value [2] of the same sequence?
A: -2.35

Q: With “GTCTTGTGCAAAAAGCCCGA (chemistry not fully specified)” as the sequence, how does the “Pmel+ (sgRNA Log(2) fold change, Pmel-1 selection versus control T cells)” value [1] read?
A: -0.15

Q: And the “OT1 (sgRNA Log(2) fold change, OT-I selection versus control T cells)” value [2]?
A: -2.54

Q: Which “Pmel+ (sgRNA Log(2) fold change, Pmel-1 selection versus control T cells)” value [1] does the source give for “TCAGGATGCTGTGATAAGCG (chemistry not fully specified)” here?
A: 2.98

Q: And the “OT1 (sgRNA Log(2) fold change, OT-I selection versus control T cells)” value [2]?
A: -0.67

Q: With “CCGCAGCAGATAGACACCAT (chemistry not fully specified)” as the sequence, how does the “Pmel+ (sgRNA Log(2) fold change, Pmel-1 selection versus control T cells)” value [1] read?
A: -0.11

Q: And the “OT1 (sgRNA Log(2) fold change, OT-I selection versus control T cells)” value [2]?
A: -2.54

Q: “CTCAGCTGGATACAACCAGG (chemistry not fully specified)” was tested. Which “Pmel+ (sgRNA Log(2) fold change, Pmel-1 selection versus control T cells)” value [1] did it give?
A: 0.00

Q: What about the “OT1 (sgRNA Log(2) fold change, OT-I selection versus control T cells)” value [2] of the same sequence?
A: -2.27

Q: Which results are given for “CTGCAGCATATCGTCAACCA (chemistry not fully specified)”?
A: Pmel+ (sgRNA Log(2) fold change, Pmel-1 selection versus control T cells) [1]: -0.72; OT1 (sgRNA Log(2) fold change, OT-I selection versus control T cells) [2]: -2.30

Q: Which “Pmel+ (sgRNA Log(2) fold change, Pmel-1 selection versus control T cells)” value [1] does the source give for “TAAGCGTTGTTGACTACATG (chemistry not fully specified)” here?
A: 0.00

Q: What about the “OT1 (sgRNA Log(2) fold change, OT-I selection versus control T cells)” value [2] of the same sequence?
A: -3.02

Q: With “CCATTGTATAACTGTCTGCG (chemistry not fully specified)” as the sequence, how does the “Pmel+ (sgRNA Log(2) fold change, Pmel-1 selection versus control T cells)” value [1] read?
A: -1.14

Q: What about the “OT1 (sgRNA Log(2) fold change, OT-I selection versus control T cells)” value [2] of the same sequence?
A: -3.02

Q: Which “Pmel+ (sgRNA Log(2) fold change, Pmel-1 selection versus control T cells)” value [1] does the source give for “GCTCAAGTACTCGCCCGACC (chemistry not fully specified)” here?
A: -0.69

Q: What about the “OT1 (sgRNA Log(2) fold change, OT-I selection versus control T cells)” value [2] of the same sequence?
A: -2.85

Q: With “CAGCAGCAAGTTCACAGGTG (chemistry not fully specified)” as the sequence, how does the “Pmel+ (sgRNA Log(2) fold change, Pmel-1 selection versus control T cells)” value [1] read?
A: -1.37

Q: And the “OT1 (sgRNA Log(2) fold change, OT-I selection versus control T cells)” value [2]?
A: -3.04

Q: What does the source list for “CTCTTCCAACACGTCCAAGT (chemistry not fully specified)”?
A: Pmel+ (sgRNA Log(2) fold change, Pmel-1 selection versus control T cells) [1]: 3.56; OT1 (sgRNA Log(2) fold change, OT-I selection versus control T cells) [2]: 0.64

Q: With “AAGTCCTAGATAAAGCACAT (chemistry not fully specified)” as the sequence, how does the “Pmel+ (sgRNA Log(2) fold change, Pmel-1 selection versus control T cells)” value [1] read?
A: 3.43

Q: What about the “OT1 (sgRNA Log(2) fold change, OT-I selection versus control T cells)” value [2] of the same sequence?
A: 3.13

Q: Which results are given for “GCTCACCACGGGCTGCAACG (chemistry not fully specified)”?
A: Pmel+ (sgRNA Log(2) fold change, Pmel-1 selection versus control T cells) [1]: 2.34; OT1 (sgRNA Log(2) fold change, OT-I selection versus control T cells) [2]: 0.43

Q: With “GCAAGAGGTTATCAAACACG (chemistry not fully specified)” as the sequence, how does the “Pmel+ (sgRNA Log(2) fold change, Pmel-1 selection versus control T cells)” value [1] read?
A: -0.79

Q: And the “OT1 (sgRNA Log(2) fold change, OT-I selection versus control T cells)” value [2]?
A: -2.17

Q: “TGGTCTAGTTACCATGCAAG (chemistry not fully specified)” was tested. Which “Pmel+ (sgRNA Log(2) fold change, Pmel-1 selection versus control T cells)” value [1] did it give?
A: -0.83

Q: What about the “OT1 (sgRNA Log(2) fold change, OT-I selection versus control T cells)” value [2] of the same sequence?
A: -3.50

Q: For “GATGTGTCCCTAGTCTACCG (chemistry not fully specified)”, which “Pmel+ (sgRNA Log(2) fold change, Pmel-1 selection versus control T cells)” value [1] is on record?
A: -0.24

Q: What about the “OT1 (sgRNA Log(2) fold change, OT-I selection versus control T cells)” value [2] of the same sequence?
A: -3.40

Q: For “TTCAGGGTGAAATACGAGGA (chemistry not fully specified)”, which “Pmel+ (sgRNA Log(2) fold change, Pmel-1 selection versus control T cells)” value [1] is on record?
A: 5.32

Q: And the “OT1 (sgRNA Log(2) fold change, OT-I selection versus control T cells)” value [2]?
A: 3.43

Q: “GGATCCTGGCGATTCAACAT (chemistry not fully specified)” was tested. Which “Pmel+ (sgRNA Log(2) fold change, Pmel-1 selection versus control T cells)” value [1] did it give?
A: 0.74

Q: What about the “OT1 (sgRNA Log(2) fold change, OT-I selection versus control T cells)” value [2] of the same sequence?
A: -3.11

Q: What does the source list for “CTGAGCATGTCTAACACGAG (chemistry not fully specified)”?
A: Pmel+ (sgRNA Log(2) fold change, Pmel-1 selection versus control T cells) [1]: -0.37; OT1 (sgRNA Log(2) fold change, OT-I selection versus control T cells) [2]: -2.99

Q: With “GTATAAGCCATTACGACGCA (chemistry not fully specified)” as the sequence, how does the “Pmel+ (sgRNA Log(2) fold change, Pmel-1 selection versus control T cells)” value [1] read?
A: -1.52

Q: And the “OT1 (sgRNA Log(2) fold change, OT-I selection versus control T cells)” value [2]?
A: -2.81

Q: Which results are given for “GCTGCCCCGCAGGATCATCA (chemistry not fully specified)”?
A: Pmel+ (sgRNA Log(2) fold change, Pmel-1 selection versus control T cells) [1]: -2.00; OT1 (sgRNA Log(2) fold change, OT-I selection versus control T cells) [2]: -2.94

Q: “TGAAGCTAATGACCATGAGC (chemistry not fully specified)” was tested. Which “Pmel+ (sgRNA Log(2) fold change, Pmel-1 selection versus control T cells)” value [1] did it give?
A: -0.59

Q: What about the “OT1 (sgRNA Log(2) fold change, OT-I selection versus control T cells)” value [2] of the same sequence?
A: -2.77

Q: How did the “Pmel+ (sgRNA Log(2) fold change, Pmel-1 selection versus control T cells)” value [1] turn out when “AGATTGTCAACAATGGAACT (chemistry not fully specified)” was run?
A: 0.00

Q: What about the “OT1 (sgRNA Log(2) fold change, OT-I selection versus control T cells)” value [2] of the same sequence?
A: -2.17

Q: For “CCCGGACTGGATCAACACCG (chemistry not fully specified)”, which “Pmel+ (sgRNA Log(2) fold change, Pmel-1 selection versus control T cells)” value [1] is on record?
A: -0.09

Q: And the “OT1 (sgRNA Log(2) fold change, OT-I selection versus control T cells)” value [2]?
A: -3.76
